Tests used:
JAK1 = biological target: T1, JAK1 (Homo sapiens, UniProt P23458); assay: Biochemical JAK1 kinase assay (LanthaScreen); conditions: for Ki: read-out: JAK 1 (pKi) (converted)
T1 construct: GST; purchased Life Technologies
Description: (§1) A panel of four LanthaScreen JAK biochemical assays (JAK1, 2, 3 and Tyk2) were carried in a common kinase reaction buffer (50 mM HEPES, pH 7.5, 0.01% Brij-35, 10 mM MgCl2, and 1 mM EGTA). Recombinant GST-tagged JAK enzymes and a GFP-tagged STAT1 peptide substrate were obtained from Life Technologies.
(§2) Serially or discretely diluted compounds were pre-incubated with each of the four JAK enzymes and the substrate in white 384-well microplates (Corning) at ambient temperature for 1 h. ATP was subsequently added to initiate the kinase reactions in 10 μL total volume, with 1% DMSO. […] Kinase reactions were allowed to proceed for 1 hour at ambient temperature before a 10 μL preparation of EDTA (10 mM final concentration) and Tb-anti-pSTAT1 (pTyr701) antibody (Life Technologies, 2 nM final concentration) in TR-FRET dilution buffer (Life Technologies) was added. The plates were allowed to incubate at ambient temperature for 1 h before being read on the EnVision reader (Perkin Elmer). Emission ratio signals (520 nm/495 nm) were recorded and utilized to calculate the percent inhibition values based on DMSO and background controls.
(§3) For dose-response analysis, percent inhibition data were plotted vs. compound concentrations, and IC50 values were determined from a 4-parameter robust fit model with the Prism software (GraphPad Software). Results were expressed as pIC50 (negative logarithm of IC50) and subsequently converted to pKi (negative logarithm of dissociation constant, Ki) using the Cheng-Prusoff equation.

[1] = tested on: IL-2 stimulated pSTAT5 in Tall-1 T cells; assay: Cellular JAK3 potency assay: inhibition of IL-2 stimulated pSTAT5 in Tall-1 T cells; format: cell-based, human; conditions: for Tall-1 (pIC50): IL-2 stimulated pSTAT5 in Tall-1 T cells; for IC50: Homo sapiens, TALL-1, IL-2 stimulated pSTAT5 in Tall-1 T cells, read-out: Tall-1 (pIC50) (converted)
Description: The potency of test compounds for inhibition of interleukin-2 (IL-2) stimulated STAT5 phosphorylation was measured in the Tall-1 human T cell line (DSMZ) using AlphaLisa. Because IL-2 signals through JAK3, this assay provides a measure of JAK3 cellular potency.
Compounds were serially diluted in DMSO and dispensed acoustically to empty wells. Assay media (phenol red-free DMEM (Life Technologies) supplemented with 10% FBS (ATCC)) was dispensed (4 μL/well) and plates shaken at 900 rpm for 10 mins. Cells were seeded at 45,000 cells/well in assay media (4 μL/well), and incubated at 37° C., 5% CO2 for 1 hour, followed by the addition of IL-2 (R&D Systems; final concentration 300 ng/ml) in pre-warmed assay media (4 μL) for 30 minutes. After cytokine stimulation, cells were lysed with 6 ul of 3× AlphaLisa Lysis Buffer (PerkinElmer) containing 1× PhosStop and Complete tablets (Roche). The lysate was shaken at 900 rpm for 10 minutes at room temperature (RT). Phosphorylated STAT5 was measured via the pSTAT5 AlphaLisa kit (PerkinElmer). Freshly prepared acceptor bead mixture was dispensed onto lysate (5 μL) under green filtered <100 lux light. Plates were shaken at 900 rpm for 2 mins, briefly spun down, and incubated for 2 hrs at RT in the dark. Donor beads were dispensed (5 μL) under green filtered <100 lux light. Plates were shaken at 900 rpm for 2 minutes, briefly spun down, and incubated overnight at RT in the dark.
To determine the inhibitory potency of test compounds in response to IL-2, the average emission intensity of beads bound to pSTAT5 was measured in a human T cell line. IC50 values were determined from analysis of the inhibition curves of signal intensity versus compound concentration. Data are expressed as pIC50 (negative decadic logarithm IC50) values (mean±standard deviation).

JAK3 = biological target: T2, JAK3 (Homo sapiens, UniProt P52333); assay: Biochemical JAK3 kinase assay (LanthaScreen); set-up: GST; purchased Life Technologies; conditions: for JAK3 (pKi)-JAK1 (pKi): selectivity: difference of pKi JAK3 and pKi JAK1; for Ki: read-out: JAK 3 (pKi) (converted)
T2 sequence (P52333 1-1124): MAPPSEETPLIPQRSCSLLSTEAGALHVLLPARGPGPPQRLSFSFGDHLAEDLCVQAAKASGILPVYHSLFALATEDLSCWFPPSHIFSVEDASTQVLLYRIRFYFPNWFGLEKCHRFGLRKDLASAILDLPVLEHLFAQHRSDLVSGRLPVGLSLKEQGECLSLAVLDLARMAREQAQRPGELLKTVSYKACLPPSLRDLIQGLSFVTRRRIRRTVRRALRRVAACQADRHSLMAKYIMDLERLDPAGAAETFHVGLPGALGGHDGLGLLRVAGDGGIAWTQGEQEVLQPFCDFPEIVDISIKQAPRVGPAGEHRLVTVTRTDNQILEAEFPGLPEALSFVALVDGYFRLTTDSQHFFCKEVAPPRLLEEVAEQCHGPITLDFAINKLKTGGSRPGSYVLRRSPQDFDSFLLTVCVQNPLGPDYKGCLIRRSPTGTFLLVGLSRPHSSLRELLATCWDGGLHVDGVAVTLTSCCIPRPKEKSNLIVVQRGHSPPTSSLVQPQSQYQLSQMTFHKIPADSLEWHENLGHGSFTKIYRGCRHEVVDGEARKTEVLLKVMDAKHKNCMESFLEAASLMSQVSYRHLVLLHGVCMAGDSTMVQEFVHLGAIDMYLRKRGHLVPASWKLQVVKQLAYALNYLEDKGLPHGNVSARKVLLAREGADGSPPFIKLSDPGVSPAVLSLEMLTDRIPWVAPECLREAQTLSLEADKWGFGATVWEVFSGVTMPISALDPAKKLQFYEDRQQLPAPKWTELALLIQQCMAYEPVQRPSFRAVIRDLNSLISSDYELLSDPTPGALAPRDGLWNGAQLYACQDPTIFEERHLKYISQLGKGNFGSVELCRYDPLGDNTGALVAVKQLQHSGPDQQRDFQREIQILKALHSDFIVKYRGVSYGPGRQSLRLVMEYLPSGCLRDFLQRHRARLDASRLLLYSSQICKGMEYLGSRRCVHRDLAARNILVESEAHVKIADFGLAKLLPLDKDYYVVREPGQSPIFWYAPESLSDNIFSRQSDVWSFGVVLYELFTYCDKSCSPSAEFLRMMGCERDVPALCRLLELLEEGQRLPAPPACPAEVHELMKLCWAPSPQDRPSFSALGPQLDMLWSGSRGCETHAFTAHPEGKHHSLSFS
Description: as §1, §2, §3

T1 sequence (P23458 whole entry): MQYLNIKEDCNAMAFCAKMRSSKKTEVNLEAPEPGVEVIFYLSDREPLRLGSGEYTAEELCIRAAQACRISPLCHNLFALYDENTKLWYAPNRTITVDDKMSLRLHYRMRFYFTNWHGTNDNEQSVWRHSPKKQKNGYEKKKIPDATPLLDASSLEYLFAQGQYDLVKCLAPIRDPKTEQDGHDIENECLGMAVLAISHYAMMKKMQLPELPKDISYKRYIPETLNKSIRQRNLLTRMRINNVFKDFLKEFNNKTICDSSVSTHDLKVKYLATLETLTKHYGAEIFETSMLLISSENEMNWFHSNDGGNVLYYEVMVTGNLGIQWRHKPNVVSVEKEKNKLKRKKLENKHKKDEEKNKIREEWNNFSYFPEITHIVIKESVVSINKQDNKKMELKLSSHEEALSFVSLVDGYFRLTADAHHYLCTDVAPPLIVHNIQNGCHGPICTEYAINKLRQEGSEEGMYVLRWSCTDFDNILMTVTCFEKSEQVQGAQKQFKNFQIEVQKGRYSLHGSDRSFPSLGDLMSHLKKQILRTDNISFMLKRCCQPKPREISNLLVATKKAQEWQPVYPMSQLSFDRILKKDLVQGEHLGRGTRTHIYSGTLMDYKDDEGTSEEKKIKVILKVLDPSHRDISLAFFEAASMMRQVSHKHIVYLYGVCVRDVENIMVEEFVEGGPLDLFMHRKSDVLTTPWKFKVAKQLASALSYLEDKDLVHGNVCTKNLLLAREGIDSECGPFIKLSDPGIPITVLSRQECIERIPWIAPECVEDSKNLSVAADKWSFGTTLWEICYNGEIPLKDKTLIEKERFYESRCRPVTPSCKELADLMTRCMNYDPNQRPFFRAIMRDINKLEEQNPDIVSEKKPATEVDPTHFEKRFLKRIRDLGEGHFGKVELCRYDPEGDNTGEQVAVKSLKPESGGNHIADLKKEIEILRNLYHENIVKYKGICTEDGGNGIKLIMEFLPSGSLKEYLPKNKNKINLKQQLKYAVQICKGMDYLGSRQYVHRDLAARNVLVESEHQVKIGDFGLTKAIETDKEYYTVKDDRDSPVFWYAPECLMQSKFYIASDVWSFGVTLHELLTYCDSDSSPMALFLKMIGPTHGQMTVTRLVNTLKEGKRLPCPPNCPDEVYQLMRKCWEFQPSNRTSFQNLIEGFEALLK

Compound	JAK 1 (pKi) (JAK1)	Tall-1 (pIC50) [1]	JAK 3 (pKi) (JAK3)	JAK3 (pKi)-JAK1 (pKi) (JAK3)	Ki (JAK1) [nM]	IC50 [1] [nM]	Ki (JAK3) [nM]
C=CC(=O)N1CC(C(C)(C)Oc2cc(-c3ccc(O)c(F)c3)cc3[nH]ncc23)C1 [Compound 3-28]	E (a pKi value of 7 or below (Ki of 100 nM or above))	A (a pIC50 value≥7.5 (IC50≤32 nM))	A (a pKi value≥10 (Ki≤0.1 nM))	A (a value of 3 or above)	–	–	–
C=CC(=O)N1CC(COc2nc(-c3ccc(O)cc3)cc3[nH]ncc23)C1 [Compound 3-29]	E (a pKi value of 7 or below (Ki of 100 nM or above))	A (a pIC50 value≥7.5 (IC50≤32 nM))	B (a pKi value between 9 and 10 (Ki between 1 nM and 0.1 nM))	A (a value of 3 or above)	–	–	–
C=CC(=O)N1CC(COc2nc(-c3ccc(O)cc3)nc3[nH]ncc23)(OC)C1 [Compound 3-76]	–	–	–	A (a value of 3 or above)	> 100	31.6 to 200	< 0.1
CN(C)C/C=C/C(=O)N1CC(COc2cc(-c3ccc(O)c(F)c3F)cc3[nH]ncc23)C1 [Compound 3-82]	–	–	–	B (a value of 2.3 to 3)	10 to 100	< 31.6	< 0.1
C#CC(=O)N1CC(COc2cc(-c3ccc(O)cc3)cc3[nH]ncc23)C1 [Compound 3-84]	–	–	–	A (a value of 3 or above)	> 100	31.6 to 200	< 0.1
C=CC(=O)N1CC(F)(COc2nc(-c3ccc(O)cc3)cc3[nH]ncc23)C1 [Compound 3-90]	–	–	–	B (a value of 2.3 to 3)	10 to 100	< 31.6	< 0.1
O=C(/C=C/CN1CCC1)N1CC(COc2cc(-c3ccc(O)cc3)cc3[nH]ncc23)C1 [Compound 3-123]	–	–	–	A (a value of 3 or above)	> 100	200 to 1000	< 0.1
O=C(/C=C/CN1CCCC1)N1CC(COc2cc(-c3ccc(O)cc3)cc3[nH]ncc23)C1 [Compound 3-124]	–	–	–	A (a value of 3 or above)	> 100	31.6 to 200	0.1 to 1
O=C(/C=C/CN1CCOCC1)N1CC(COc2cc(-c3ccc(O)cc3)cc3[nH]ncc23)C1 [Compound 3-129]	–	–	–	A (a value of 3 or above)	> 100	200 to 1000	0.1 to 1
O=C(/C=C/CN1CCSCC1)N1CC(COc2cc(-c3ccc(O)cc3)cc3[nH]ncc23)C1 [Compound 3-130]	–	–	–	A (a value of 3 or above)	> 100	31.6 to 200	0.1 to 1
COC[C@H]1CCN(C/C=C/C(=O)N2CC(COc3cc(-c4ccc(O)cc4)cc4[nH]ncc34)C2)C1 [Compound 3-134]	–	–	–	A (a value of 3 or above)	> 100	31.6 to 200	0.1 to 1
C=CC(=O)N1CC(CNc2cc(-c3ccc(O)cc3)cc3[nH]ncc23)C1 [Compound 4-3]	E (a pKi value of 7 or below (Ki of 100 nM or above))	B (a pIC50 value between 6.7 (included) and 7.5 (IC50 between 200 nM and 32 nM))	B (a pKi value between 9 and 10 (Ki between 1 nM and 0.1 nM))	B (a value of 2.3 to 3)	–	–	–
CN(C)C/C=C/C(=O)N1CC(CN(C)c2nc(-c3ccc(O)cc3)cc3[nH]ncc23)C1 [Compound 4-8]	E (a pKi value of 7 or below (Ki of 100 nM or above))	B (a pIC50 value between 6.7 (included) and 7.5 (IC50 between 200 nM and 32 nM))	B (a pKi value between 9 and 10 (Ki between 1 nM and 0.1 nM))	B (a value of 2.3 to 3)	–	–	–
CN(C)C/C=C/C(=O)N1CC(Oc2cc(-c3ccc(O)cc3)cc3[nH]ncc23)C1 [Compound 5-1]	E (a pKi value of 7 or below (Ki of 100 nM or above))	C (a pIC50 value between 6 and 6.7 (IC50 between 1 μM and 200 nM))	B (a pKi value between 9 and 10 (Ki between 1 nM and 0.1 nM))	A (a value of 3 or above)	–	–	–
CN(C)C/C=C/C(=O)N1CC(N(C)c2cc(-c3ccc(O)cc3)cc3[nH]ncc23)C1 [Compound 5-8]	E (a pKi value of 7 or below (Ki of 100 nM or above))	C (a pIC50 value between 6 and 6.7 (IC50 between 1 μM and 200 nM))	B (a pKi value between 9 and 10 (Ki between 1 nM and 0.1 nM))	A (a value of 3 or above)	–	–	–
C=CC(=O)N1CC(N(C)c2cc(-c3ccc(O)cc3)cc3[nH]ncc23)C1 [Compound 5-9]	E (a pKi value of 7 or below (Ki of 100 nM or above))	C (a pIC50 value between 6 and 6.7 (IC50 between 1 μM and 200 nM))	B (a pKi value between 9 and 10 (Ki between 1 nM and 0.1 nM))	A (a value of 3 or above)	–	–	–
CN(C)C/C=C/C(=O)N1CC(C)(Oc2cc(-c3ccc(O)cc3)cc3[nH]ncc23)C1 [Compound 5-11]	E (a pKi value of 7 or below (Ki of 100 nM or above))	B (a pIC50 value between 6.7 (included) and 7.5 (IC50 between 200 nM and 32 nM))	B (a pKi value between 9 and 10 (Ki between 1 nM and 0.1 nM))	A (a value of 3 or above)	–	–	–
CN(C)C/C=C/C(=O)N1CC(Oc2cc(-c3ccc(O)cc3)cc3[nH]ncc23)(C2CC2)C1 [Compound 5-13]	E (a pKi value of 7 or below (Ki of 100 nM or above))	B (a pIC50 value between 6.7 (included) and 7.5 (IC50 between 200 nM and 32 nM))	B (a pKi value between 9 and 10 (Ki between 1 nM and 0.1 nM))	B (a value of 2.3 to 3)	–	–	–
C=CC(=O)N1CC(Oc2cc(-c3ccc(O)cc3)nc3[nH]ncc23)C1 [Compound 5-15]	E (a pKi value of 7 or below (Ki of 100 nM or above))	B (a pIC50 value between 6.7 (included) and 7.5 (IC50 between 200 nM and 32 nM))	A (a pKi value≥10 (Ki≤0.1 nM))	A (a value of 3 or above)	–	–	–
